Results reported in ChEMBL document CHEMBL1146378, “Synthesis and cytotoxicity of novel fatty acid-nucleoside conjugates” (2007).
Active and inactive are the calls of the source. No cut-off for these calls is given here.

Key:
Assay type in all cases: functional
[1] = (§1) Cytotoxicity against human Ec9706 cells at 200 uM after 48 hrs by MTT assay; conditions: EC9706, 48 h
A549 [2] = experiment: Cytotoxicity against human A549 cells at 200 uM after 48 hrs by MTT assay; conditions: for inhibition at 200 µM: A549, 48 h
[3] = (§2) Cytotoxicity against human Ec9706 cells at 400 uM after 48 hrs by MTT assay; conditions: EC9706, 48 h
EC9706 [4] = experiment: (§3) Cytotoxicity against human Ec9706 cells at 100 uM after 48 hrs by MTT assay
A549 [5] = experiment: Cytotoxicity against human A549 cells at 400 uM after 48 hrs by MTT assay; conditions: for inhibition at 400 µM: A549, 48 h
A549 [6] = experiment: Cytotoxicity against human A549 cells at 100 uM after 48 hrs by MTT assay; conditions: for inhibition at 100 µM: A549, 48 h
A549 [7] = experiment: Cytotoxicity against human A549 cells at 50 uM after 48 hrs by MTT assay; conditions: for inhibition at 50 µM: A549, 48 h
EC9706 [8] = experiment: (§4) Cytotoxicity against human Ec9706 cells at 50 uM after 48 hrs by MTT assay
[9] = as §4; conditions: EC9706, 48 h
[10] = as §3; conditions: EC9706, 48 h
EC9706 [11] = experiment: as §1
EC9706 [12] = experiment: as §2

| Compound | inhibition at 200 µM [1] [%] | inhibition at 200 µM (A549 [2]) [%] | inhibition at 400 µM [3] [%] | Activity (EC9706 [4]) | inhibition at 400 µM (A549 [5]) [%] | inhibition at 100 µM (A549 [6]) [%] | Activity (A549 [7]) | Activity (EC9706 [8]) | Activity (A549 [6]) | inhibition at 50 µM (A549 [7]) [%] | inhibition at 50 µM [9] [%] | inhibition at 100 µM [10] [%] | Activity (EC9706 [11]) | Activity (A549 [2]) | Activity (EC9706 [12]) | Activity (A549 [5]) |
| --- | --- | --- | --- | --- | --- | --- | --- | --- | --- | --- | --- | --- | --- | --- | --- | --- |
| O=c1[nH]c(=O)n(C2CCCO2)cc1F (stereo not given) [TEGAFUR] | 7.8 | 15.2 | 17.4 | inactive | 17.8 | 12.7 | – | – | – | – | – | – | – | – | – | – |
| CCCCCCCCCCCC(=O)OCCn1c(=O)c(F)cn([C@H]2CCCO2)c1=O | – | – | – | inactive | – | – | inactive | inactive | inactive | – | – | – | – | – | – | – |
| CCCCCCCC/C=C\CCCCCCCC(=O)OCCn1c(=O)c(F)cn([C@H]2CCCO2)c1=O | – | – | – | – | – | 4.8 | – | – | – | 2.5 | 3.7 | 4.9 | – | – | – | – |
| O=c1c(F)cn([C@H]2CCCO2)c(=O)n1CCO | – | – | – | inactive | – | – | – | – | inactive | – | – | – | inactive | inactive | inactive | inactive |
| CCCCC/C=C\C/C=C\C/C=C\C/C=C\CCCC(=O)OCCn1c(=O)c(F)cn([C@H]2CCCO2)c1=O | 59.9 | 78.2 | 69.9 | – | 92.1 | 33.8 | – | – | – | 1.6 | 19.3 | 30.8 | – | – | – | – |
| CCCCC/C=C\C/C=C\CCCCCCCC(=O)OCCn1c(=O)c(F)cn([C@H]2CCCO2)c1=O | 31.9 | 24.7 | 54.4 | – | 90.7 | 11 | – | inactive | – | 1.8 | – | 14.4 | – | – | – | – |
| CCCCCCCCCCCCCCCCCC(=O)OCCn1c(=O)c(F)cn([C@H]2CCCO2)c1=O | – | – | – | inactive | – | – | inactive | inactive | inactive | – | – | – | – | – | – | – |
